Legend:
[1] = xn = mol fraction of the nth substance listed; conditions: 298.15 K, 101.33 kPa, Liquid, Vibrating tube method
[2] = excess molar enthalpy (molar enthalpy of mixing); xn = mol fraction of the nth substance listed; conditions: 298.15 K, 101.33 kPa, Liquid, Calvet calorimetry
[3] = Liquid
[4] = refractive index (Na D-line) (dimensionless); conditions: 298.15 K; 101.33 kPa; Liquid; Standard Abbe refractometry

COC=O [methyl methanoate] + CCCCCCC
Conditions | excess molar enthalpy [kJ/mol] | mass density [kg/m3]
[1], x1 = 0.042 | – | 682.76
[1], x1 = 0.1206 | – | 689.96
[1], x1 = 0.2235 | – | 702.15
[1], x1 = 0.3614 | – | 723.34
[1], x1 = 0.4593 | – | 741.73
[1], x1 = 0.5364 | – | 759.27
[1], x1 = 0.6079 | – | 778.2
[1], x1 = 0.6651 | – | 795.64
[1], x1 = 0.7799 | – | 837.8
[1], x1 = 0.8321 | – | 861.36
[1], x1 = 0.8729 | – | 882.18
[1], x1 = 0.911 | – | 904.19
[1], x1 = 0.946 | – | 926.26
[1], x1 = 0.9736 | – | 945.92
[1], x1 = 0.9935 | – | 961.3
[2], x1 = 0.0673 | 0.514 | –
[2], x1 = 0.1535 | 1.12 | –
[2], x1 = 0.2499 | 1.69 | –
[2], x1 = 0.3332 | 2.02 | –
[2], x1 = 0.4008 | 2.18 | –
[2], x1 = 0.4555 | 2.25 | –
[2], x1 = 0.5004 | 2.29 | –
[2], x1 = 0.5354 | 2.28 | –
[2], x1 = 0.5709 | 2.28 | –
[2], x1 = 0.6389 | 2.18 | –
[2], x1 = 0.6745 | 2.12 | –
[2], x1 = 0.7144 | 2 | –
[2], x1 = 0.7527 | 1.89 | –
[2], x1 = 0.794 | 1.72 | –
[2], x1 = 0.8313 | 1.52 | –
[2], x1 = 0.8721 | 1.27 | –
[2], x1 = 0.9068 | 0.981 | –
[2], x1 = 0.9426 | 0.656 | –
[2], x1 = 0.973 | 0.338 | –

CCCC(=O)OC [methyl butanoate]
Conditions | mass density [kg/m3]
[3], 298.15 K, 101.33 kPa, Vibrating tube method | 892.52

Conditions | Normal boiling temperature [°C]
[3], Ebulliometric method (Recirculating still) | 102.38

Conditions | refractive index
[4] | 1.3852

CCCC(=O)OC [methyl butanoate] + CCCCCCC
[1]
Conditions | mass density [kg/m3]
x1 = 0.0337 | 684.36
x1 = 0.0689 | 689.75
x1 = 0.102 | 694.93
x1 = 0.1531 | 703.25
x1 = 0.2487 | 719.6
x1 = 0.3261 | 733.58
x1 = 0.3824 | 744.29
x1 = 0.4586 | 759.5
x1 = 0.5333 | 775.25
x1 = 0.6085 | 791.88
x1 = 0.6618 | 804.18
x1 = 0.7161 | 817.1
x1 = 0.7869 | 834.67
x1 = 0.8394 | 848.24
x1 = 0.8882 | 861.22
x1 = 0.9255 | 871.41

COC(C)=O [methyl ethanoate] + CCCCCCC
[1]
Conditions | mass density [kg/m3]
x1 = 0.0676 | 686.77
x1 = 0.1019 | 690.81
x1 = 0.1594 | 698.12
x1 = 0.2497 | 710.82
x1 = 0.3137 | 721.1
x1 = 0.4011 | 736.76
x1 = 0.4829 | 753.42
x1 = 0.5498 | 768.76
x1 = 0.6215 | 786.97
x1 = 0.6765 | 802.41
x1 = 0.7204 | 815.61
x1 = 0.7841 | 836.35
x1 = 0.8342 | 854.72
x1 = 0.8837 | 873.99
x1 = 0.9248 | 891.52
x1 = 0.9632 | 908.98

— the NIST ThermoML archive (doi:10.1021/je030117d)
